Measured values: the supplement of paper PMC10627819

Legend:
S. aureus DSM 20231 [1] = test: fitness (endpoint OD595 vs no drug) (fraction); higher = more growth
Method in brief: (§1)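 Each well of a 384-well plate received 30 µl of culture at OD595 0.01, or 55 µl for S. pneumoniae. TSB, LB Lennox or CY served as media at 37 °C. OD595 was taken every 30 min for 14 h and corrected by subtracting the first reading. Fitness is the optical density at stationary-phase entry divided by the robust mean of no-drug controls, capped at 1.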

S. aureus Newman [2] = test: as above
Method in brief: as §1

B. subtilis 168 = test: Bliss interaction score (quartile over a dose matrix) (fitness difference); higher = more antagonism (negative = synergy)
Method in brief: (§2)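 The Bliss score takes observed fitness and subtracts the expected fitness, calculated as a product of single-drug fitness values. Those single-drug values were inferred from the combination data. Fitness is OD595 at entry into stationary phase divided by the plate's robust no-drug mean, capped at 1, and the score is summarised by quartiles across technical, biological and donor/recipient replicates.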

S. aureus DSM 20231 [3] = test: as above
Method in brief: as §2

S. aureus Newman [4] = test: as above
Method in brief: as §2

S. pneumoniae D39V = test: as above
Method in brief: as §2
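For Bliss interaction score (quartile over a dose matrix) in this document: first quartile when negative (synergy) and third quartile when positive (antagonism).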

O=C(N[C@H](CO)[C@H](O)c1ccc([N+](=O)[O-])cc1)C(Cl)Cl [Chloramphenicol] + CC1=C\[C@@H](O)CC(=O)Cc2nc(co2)C(=O)N2CCC=C2C(=O)O[C@H](C(C)C)[C@H](C)/C=C/C(=O)NC\C=C\1 [Virginiamycin M1]
fitness
Conditions	first compound 0.75 µg/mL	first compound 1.5 µg/mL	first compound 3 µg/mL
S. aureus DSM 20231 [1], partner 0.0625 µg/mL	0.735	0.555	0.084
S. aureus DSM 20231 [1], partner 0.125 µg/mL	0.649	0.569	–
S. aureus DSM 20231 [1], partner 0.25 µg/mL	0.789	0.609	0.12
S. aureus Newman [2], partner 0.0625 µg/mL	0.77	0.467	0.144
S. aureus Newman [2], partner 0.125 µg/mL	0.777	0.474	0.151
S. aureus Newman [2], partner 0.25 µg/mL	0.792	0.488	0.179

fitness, one replicate
Conditions	first compound 0.75 µg/mL	first compound 1.5 µg/mL	first compound 3 µg/mL
S. aureus DSM 20231 [1], partner 0.5 µg/mL	0.884	0.601	–
S. aureus DSM 20231 [1], partner 1 µg/mL	0.811	0.535	0.149
S. aureus Newman [2], partner 0.5 µg/mL	0.827	0.609	0.286
S. aureus Newman [2], partner 1 µg/mL	≥ 1	0.692	0.26
S. aureus Newman [2], partner 2 µg/mL	0.815	0.683	0.153

Conditions	Bliss interaction score
B. subtilis 168	0.0462
S. aureus DSM 20231 [3]	-0.0544
S. aureus Newman [4]	-0.0589
S. pneumoniae D39V	0.0662

O=C(N[C@H](CO)[C@H](O)c1ccc([N+](=O)[O-])cc1)C(Cl)Cl [Chloramphenicol] + CCCCCCCCCC(=O)N[C@@H]1[C@H]([C@@H]([C@H](O[C@H]1OC2=C3C=C4C=C2OC5=C(C=C(C=C5)[C@H]([C@H]6C(=O)N[C@@H](C7=C(C(=CC(=C7)O)OC8[C@H]([C@H]([C@@H]([C@H](O8)CO)O)O)O)C9=C(C=CC(=C9)[C@H](C(=O)N6)NC(=O)[C@@H]4NC(=O)[C@@H]1C2=CC(=CC(=C2)OC2=C(C=CC(=C2)[C@H](C(=O)N[C@H](CC2=CC(=C(O3)C=C2)Cl)C(=O)N1)N)O)O)O)C(=O)O)O[C@H]1[C@@H]([C@H]([C@@H]([C@H](O1)CO)O)O)NC(=O)C)Cl)CO)O)O [Teicoplanin]
fitness, main component drawn
Conditions	first compound 0.75 µg/mL	first compound 1.5 µg/mL	first compound 3 µg/mL
S. aureus DSM 20231 [1], partner 0.1562 µg/mL	0.813	0.638	0.129
S. aureus DSM 20231 [1], partner 0.3125 µg/mL	0.804	–	0.141
S. aureus DSM 20231 [1], partner 0.625 µg/mL	0.915	0.739	0.149
S. aureus Newman [2], partner 0.1562 µg/mL	0.865	0.666	–
S. aureus Newman [2], partner 0.3125 µg/mL	0.876	0.679	0.112
S. aureus Newman [2], partner 0.625 µg/mL	0.842	0.725	0.13

fitness, S. aureus Newman [2], one replicate, main component drawn
Conditions	first compound 0.75 µg/mL	first compound 1.5 µg/mL	first compound 3 µg/mL
partner 0.62 µg/mL	0.876	0.634	0.256
partner 1.24 µg/mL	0.872	0.578	0.191
partner 2.48 µg/mL	0.584	0.512	–

main component drawn
Conditions	Bliss interaction score
B. subtilis 168	-0.0728
S. aureus DSM 20231 [3]	0.143
S. aureus Newman [4]	0.151
S. pneumoniae D39V	-0.0708

O=C(N[C@H](CO)[C@H](O)c1ccc([N+](=O)[O-])cc1)C(Cl)Cl [Chloramphenicol] + CCN(CC)CCOC(=O)c1ccc(N)cc1 [Procaine]
fitness
Conditions	partner 85.5 µg/mL	partner 171 µg/mL	partner 342 µg/mL
S. aureus DSM 20231 [1], first compound 0.75 µg/mL	0.675	–	0.753
S. aureus DSM 20231 [1], first compound 1.5 µg/mL	0.516	0.57	0.538
S. aureus DSM 20231 [1], first compound 3 µg/mL	0.0915	0.0967	0.0943
S. aureus Newman [2], first compound 0.75 µg/mL	0.783	0.787	0.793
S. aureus Newman [2], first compound 1.5 µg/mL	0.531	0.559	0.577

Conditions	Bliss interaction score
B. subtilis 168	-0.0897
S. aureus DSM 20231 [3]	-0.0791
S. aureus Newman [4]	0.0594
S. pneumoniae D39V	-0.0498

O=C(N[C@H](CO)[C@H](O)c1ccc([N+](=O)[O-])cc1)C(Cl)Cl [Chloramphenicol] + CN1C2=CC=CC=C2N=C3C1=CC=CC3=O [Pyocyanin]
fitness
Conditions	first compound 0.75 µg/mL	first compound 1.5 µg/mL	first compound 3 µg/mL
S. aureus DSM 20231 [1], partner 1.25 µg/mL	0.645	–	0.0788
S. aureus DSM 20231 [1], partner 2.5 µg/mL	–	0.321	–
S. aureus DSM 20231 [1], partner 5 µg/mL	–	0.332	0.0653
S. aureus Newman [2], partner 1.25 µg/mL	0.741	0.5	0.174
S. aureus Newman [2], partner 2.5 µg/mL	0.725	0.41	0.137
S. aureus Newman [2], partner 5 µg/mL	0.333	0.173	0.0578

Conditions	Bliss interaction score
B. subtilis 168	0.049
S. aureus DSM 20231 [3]	-0.0896
S. aureus Newman [4]	-0.0632
S. pneumoniae D39V	0.0521

O=C(N[C@H](CO)[C@H](O)c1ccc([N+](=O)[O-])cc1)C(Cl)Cl [Chloramphenicol] + CN(N=O)C(=O)N[C@@H](C=O)[C@@H](O)[C@H](O)[C@H](O)CO [Streptozotocin]
fitness
Conditions	first compound 0.75 µg/mL	first compound 1.5 µg/mL	first compound 3 µg/mL
S. aureus DSM 20231 [1], partner 0.15 µg/mL	0.677	0.481	0.104
S. aureus DSM 20231 [1], partner 0.3 µg/mL	0.603	0.46	0.1
S. aureus DSM 20231 [1], partner 0.6 µg/mL	0.616	0.385	0.0772
S. aureus Newman [2], partner 0.15 µg/mL	0.705	0.464	–
S. aureus Newman [2], partner 0.3 µg/mL	0.605	0.402	0.0999
S. aureus Newman [2], partner 0.6 µg/mL	0.47	0.295	0.0766

Conditions	Bliss interaction score
B. subtilis 168	0.0462
S. aureus DSM 20231 [3]	-0.0514
S. aureus Newman [4]	0.0386
S. pneumoniae D39V	-0.0846

O=C(N[C@H](CO)[C@H](O)c1ccc([N+](=O)[O-])cc1)C(Cl)Cl [Chloramphenicol] + CN[C@@H]1[C@H](O)[C@H](NC)[C@H]2O[C@@]3(O)C(=O)C[C@@H](C)O[C@H]3O[C@@H]2[C@H]1O [Spectinomycin]
fitness
Conditions	first compound 0.75 µg/mL	first compound 1.5 µg/mL	first compound 3 µg/mL
S. aureus DSM 20231 [1], partner 4 µg/mL	0.556	0.539	0.12
S. aureus DSM 20231 [1], partner 8 µg/mL	0.665	0.511	0.117
S. aureus DSM 20231 [1], partner 16 µg/mL	0.657	0.376	0.15
S. aureus Newman [2], partner 4 µg/mL	0.725	0.441	0.207
S. aureus Newman [2], partner 8 µg/mL	0.722	0.42	0.172
S. aureus Newman [2], partner 16 µg/mL	–	–	0.0732

fitness, one replicate
Conditions	first compound 0.75 µg/mL	first compound 1.5 µg/mL	first compound 3 µg/mL
S. aureus DSM 20231 [1], partner 32 µg/mL	0.493	0.259	0.0743
S. aureus DSM 20231 [1], partner 64 µg/mL	0.0559	0.0436	0.0235
S. aureus Newman [2], partner 32 µg/mL	0.155	0.0442	0.0229
S. aureus Newman [2], partner 64 µg/mL	0.0289	0.0929	0.0827

Conditions	Bliss interaction score
B. subtilis 168	-0.0556
S. aureus DSM 20231 [3]	-0.0533
S. aureus Newman [4]	-0.107
S. pneumoniae D39V	-0.0595

O=C(N[C@H](CO)[C@H](O)c1ccc([N+](=O)[O-])cc1)C(Cl)Cl [Chloramphenicol] + CN[C@H](CC(C)C)C(=O)N[C@H]1C(=O)N[C@@H](CC(N)=O)C(=O)N[C@H]2C(=O)N[C@H]3C(=O)N[C@H](C(=O)N[C@H](C(=O)O)c4cc(O)cc(O)c4-c4cc3ccc4O)[C@H](O)c3ccc(c(Cl)c3)Oc3cc2cc(c3O[C@@H]2O[C@H](CO)[C@@H](O)[C@H](O)[C@H]2O[C@H]2C[C@](C)(N)[C@H](O)[C@H](C)O2)Oc2ccc(cc2Cl)[C@H]1O [Vancomycin]
fitness
Conditions	first compound 0.75 µg/mL	first compound 1.5 µg/mL	first compound 3 µg/mL
S. aureus DSM 20231 [1], partner 0.1875 µg/mL	0.669	0.608	0.165
S. aureus DSM 20231 [1], partner 0.375 µg/mL	0.7	0.654	0.142
S. aureus DSM 20231 [1], partner 0.75 µg/mL	–	0.652	0.15
S. aureus Newman [2], partner 0.1875 µg/mL	0.874	–	–
S. aureus Newman [2], partner 0.375 µg/mL	0.877	0.607	–
S. aureus Newman [2], partner 0.75 µg/mL	0.836	0.634	0.23

Conditions	Bliss interaction score
B. subtilis 168	-0.0535
S. aureus DSM 20231 [3]	0.07
S. aureus Newman [4]	0.079
S. pneumoniae D39V	-0.0896

O=C(N[C@H](CO)[C@H](O)c1ccc([N+](=O)[O-])cc1)C(Cl)Cl [Chloramphenicol] + COc1c(N2C[C@@H]3CCCN[C@@H]3C2)c(F)cc2c(=O)c(C(=O)O)cn(C3CC3)c12 [Moxifloxacin]
fitness
Conditions	first compound 0.75 µg/mL	first compound 1.5 µg/mL	first compound 3 µg/mL
S. aureus DSM 20231 [1], partner 0.0075 µg/mL	0.578	0.633	–
S. aureus DSM 20231 [1], partner 0.015 µg/mL	0.714	0.636	0.113
S. aureus DSM 20231 [1], partner 0.03 µg/mL	0.613	0.562	0.0861
S. aureus Newman [2], partner 0.0075 µg/mL	0.738	0.566	0.214
S. aureus Newman [2], partner 0.015 µg/mL	0.647	0.487	0.166
S. aureus Newman [2], partner 0.03 µg/mL	–	0.364	–

fitness, S. aureus DSM 20231 [1], one replicate
Conditions	first compound 0.75 µg/mL	first compound 1.5 µg/mL	first compound 3 µg/mL
partner 0.06 µg/mL	0.67	0.635	0.0943
partner 0.12 µg/mL	0.591	0.58	0.118

Conditions	Bliss interaction score
B. subtilis 168	0.0443
S. aureus DSM 20231 [3]	0.148
S. aureus Newman [4]	0.16
S. pneumoniae D39V	0.0681
